From patent publication US7009052B2, “Sulfonamide derivatives” (Warner Lambert Company LLC, priority 2003, dated 2006)

Each compound was assayed against T1, androgen receptor (Homo sapiens, UniProt P10275) (assay: AR Antagonist Cell Assay (MMTV-luciferase reporter, DHT-induced)). Settings: MDA-MB453-MMTV clone 54-19 cells, 100 pM DHT, 17 hr.
T1 sequence (P10275 1-920 Q868H): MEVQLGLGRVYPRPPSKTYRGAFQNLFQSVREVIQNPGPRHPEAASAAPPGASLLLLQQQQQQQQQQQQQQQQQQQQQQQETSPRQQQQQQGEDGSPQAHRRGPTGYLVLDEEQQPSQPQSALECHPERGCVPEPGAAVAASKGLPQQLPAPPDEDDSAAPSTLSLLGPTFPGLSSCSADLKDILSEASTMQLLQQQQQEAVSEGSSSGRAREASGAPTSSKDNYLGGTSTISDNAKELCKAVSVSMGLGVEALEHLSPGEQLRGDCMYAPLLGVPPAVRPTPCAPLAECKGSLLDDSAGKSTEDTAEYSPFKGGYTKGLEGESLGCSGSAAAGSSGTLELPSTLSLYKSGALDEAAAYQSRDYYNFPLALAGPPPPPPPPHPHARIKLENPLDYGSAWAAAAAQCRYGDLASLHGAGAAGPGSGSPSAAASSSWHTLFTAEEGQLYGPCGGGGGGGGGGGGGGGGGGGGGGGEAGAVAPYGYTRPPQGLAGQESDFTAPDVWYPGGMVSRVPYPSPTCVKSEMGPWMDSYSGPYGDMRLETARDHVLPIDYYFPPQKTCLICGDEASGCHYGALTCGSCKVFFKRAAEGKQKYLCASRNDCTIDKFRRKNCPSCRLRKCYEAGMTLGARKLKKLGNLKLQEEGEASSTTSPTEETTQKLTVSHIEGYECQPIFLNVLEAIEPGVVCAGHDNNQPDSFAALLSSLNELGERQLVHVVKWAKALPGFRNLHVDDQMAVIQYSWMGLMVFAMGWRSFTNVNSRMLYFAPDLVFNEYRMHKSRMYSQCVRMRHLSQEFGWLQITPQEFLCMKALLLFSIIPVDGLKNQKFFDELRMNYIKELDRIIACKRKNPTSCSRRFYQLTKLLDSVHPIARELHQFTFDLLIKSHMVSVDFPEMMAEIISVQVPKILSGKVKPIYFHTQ
Type: cell-based
Description: The compounds ability to antagonize the effects of androgen on the androgen receptor were determined in the protocol described immediately below.
Experimental Procedure for AR Antagonist Cell Assay
Cell line: MDA-MB453-MMTV clone 54-19. This cell line is a stable transfected cell line with MDA-MB453 cell background (human breast tumor cell expressing high level of androgen receptor). A MMTV minimal promoter containing ARE was first cloned in front of a firefly luciferase reporter gene. Then the cascade was cloned into transfection vector pUV120puro. Electroporation method was used for transfecting MDA-MB-453 cell. Puromycin resistant stable cell line was selected.
Cell Culture Media and Reagents:
Culture medium: DMEM (high glucose, Gibco cat #: 11960-044), 10% FBS, and 1% L-glutamine
Plating medium: DMEM (phenol red free), 10% charcoal treated HyClone serum, 1% L-glutamine
Assay medium: DMEM (phenol red free), 1% charcoal treated HyClone serum, 1% L-glutamine, and 1% penicillin/streptomycin
3× luciferase buffer: 2% beta-mercaptoethanol, 0.6% ATP, 0.0135% luciferine in cell lysis buffer
• 1. Cells are maintained in culture medium, splitting cells when they reach 80–90% confluence • 2. To test compounds, 10,000 cells/well are plated to opaque 96 cell culture plate in 100 ul/well plating medium, culture for overnight at 37° C. in cell culture incubator • 3. Carefully remove plating medium, then add 80 ul/well of pre-warmed assay medium, add 10 ul/well testing compound (final concentration at 10 uM or 1 uM), incubate at 37° C. for 30 minutes • 4. Add 10 ul/well freshly prepared DHT (final concentration at 100 pM) to each well, incubate at 37° C. for 17 hr (overnight) • 5. Add 50 ul/well 3× luciferase buffer, incubate at room temperature for 5 minutes, then count on Luminometer The fold induction over background by 100 pM DHT in the absence of testing compounds is standardized as 100% and experimental result is expressed as percentage of inhibition by testing compounds. TABLE3

| IC50 [µM] | Compound |
| --- | --- |
| 10.6 | CCCCN(CC)S(=O)(=O)c1ccc2c(c1)c(C(F)(F)F)cc(=O)n2C [Example 4, 1-Methyl-2-oxo-4-trifluoromethyl-1,2-dihydroquinoline-6-sulfonicacid butylethylamide] |
| > 10 | CCCCN(CCO)S(=O)(=O)c1ccc2c(c1)c(C(F)(F)F)cc(=O)n2C [Example 5, 1-Methyl-2-oxo-4-trifluoromethyl-1,2-dihydroquinoline-6-sulfonicacid butyl(2-hydroxyethyl)-amide] |
| > 10 | Cn1c(=O)cc(C(F)(F)F)c2cc(S(=O)(=O)N(CCO)Cc3ccccc3)ccc21 [Example 6, 1-Methyl-2-oxo-4-trifluoromethyl-1,2-dihydroquinoline-6-sulfonicacid benzyl(2-hydroxyethyl)-amide] |
| > 10 | CCCCCN(CCO)S(=O)(=O)c1ccc2c(c1)c(C(F)(F)F)cc(=O)n2C [Example 7, 1-Methyl-2-oxo-4-trifluoromethyl-1,2-dihydroquinoline-6-sulfonicacid (2-hydroxyethyl)-pentylamide] |
| > 10 | CCCCN(C)S(=O)(=O)c1ccc2c(c1)c(C(F)(F)F)cc(=O)n2C [Example 8, 1-Methyl-2-oxo-4-trifluoromethyl-1,2-dihydroquinoline-6-sulfonicacid butyimethylamide] |
| > 10 | Cn1c(=O)cc(C(F)(F)F)c2cc(S(=O)(=O)N(Cc3ccccc3)Cc3ccccc3)ccc21 [Example 9, 1-Methyl-2-oxo-4-trifluoromethyl-1,2-dihydroquinoline-6-sulfonicacid dibenzylamide] |
| 6.35 | CCN(Cc1ccccc1)S(=O)(=O)c1ccc2c(c1)c(C(F)(F)F)cc(=O)n2C [Example 10, 1-Methyl-2-oxo-4-trifluoromethyl-1,2-dihydroquinoline-6-sulfonicacid benzylethylamide] |
| > 10 | CN(c1ccccc1)S(=O)(=O)c1ccc2c(c1)c(C(F)(F)F)cc(=O)n2C [Example 12, 1-Methyl-2-oxo-4-trifluoromethyl-1,2-dihydroquinoline-6-sulfonicacid methylphenylamide] |
| 0.76 | Cc1cccc(NS(=O)(=O)c2ccc3c(c2)c(C(F)(F)F)cc(=O)n3C)c1 [Example 13, 1-Methyl-2-oxo-4-trifluoromethyl-1,2-dihydroquinoline-6-sulfonicacid m-tolylamide] |
| 1.03 | Cc1ccc(NS(=O)(=O)c2ccc3c(c2)c(C(F)(F)F)cc(=O)n3C)cc1 [Example 14, 1-Methyl-2-oxo-4-trifluoromethyl-1,2-dihydroquinoline-6-sulfonicacid p-tolylamide] |
| 1.17 | C#Cc1ccc(NS(=O)(=O)c2ccc3c(c2)c(C(F)(F)F)cc(=O)n3C)cc1 [Example 15, 1-Methyl-2-oxo-4-trifluoromethyl-1,2-dihydroquinoline-6-sulfonicacid (4-ethynylphenyl)amide] |
| 5.03 | CCc1cccc(NS(=O)(=O)c2ccc3c(c2)c(C(F)(F)F)cc(=O)n3C)c1 [Example 16, 1-Methyl-2-oxo-4-trifluoromethyl-1,2-dihydroquinoline-6-sulfonicacid (3-ethylphenyl)amide] |
| 0.87 | CCc1ccc(NS(=O)(=O)c2ccc3c(c2)c(C(F)(F)F)cc(=O)n3C)cc1 [Example 17, 1-Methyl-2-oxo-4-trifluoromethyl-1,2-dihydroquinoline-6-sulfonicacid (4-ethylphenyl)amide] |
| > 10 | Cc1cccc(C)c1NS(=O)(=O)c1ccc2c(c1)c(C(F)(F)F)cc(=O)n2C [Example 18, 1-Methyl-2-oxo-4-trifluoromethyl-1,2-dihydroquinoline-6-sulfonicacid (2,6-dimethylphenyl)amide] |
| > 10 | Cn1c(=O)cc(C(F)(F)F)c2cc(S(=O)(=O)Nc3ccccc3CO)ccc21 [Example 19, 1-Methyl-2-oxo-4-trifluoromethyl-1,2-dihydroquinoline-6-sulfonicacid(2-hydroxymethylphenyl)amide] |
| > 10 | COc1ccccc1NS(=O)(=O)c1ccc2c(c1)c(C(F)(F)F)cc(=O)n2C [Example 20, 1-Methyl-2-oxo-4-trifluoromethyl-1,2-dihydroquinoline-6-sulfonicacid (2-methoxyphenyl)amide] |
| 0.99 | Cn1c(=O)cc(C(F)(F)F)c2cc(S(=O)(=O)Nc3ccc(CC#N)cc3)ccc21 [Example 21, 1-Methyl-2-oxo-4-trifluoromethyl-1,2-dihydroquinoline-6-sulfonicacid (4-cyanomethylphenyl)amide] |
| 4.47 | Cn1c(=O)cc(C(F)(F)F)c2cc(S(=O)(=O)Nc3ccc4c(c3)CCC4)ccc21 [Example 22, 1-Methyl-2-oxo-4-trifluoromethyl-1,2-dihydroquinoline-6-sulfonicacid indan-5-ylamide] |
| > 10 | Cn1c(=O)cc(C(F)(F)F)c2cc(S(=O)(=O)Nc3cccc4c3CCC4)ccc21 [Example 23, 1-Methyl-2-oxo-4-trifluoromethyl-1,2-dihydroquinoline-6-sulfonicacid indan-4-ylamide] |
| 4.23 | CC(=O)c1cccc(NS(=O)(=O)c2ccc3c(c2)c(C(F)(F)F)cc(=O)n3C)c1 [Example 24, 1-Methyl-2-oxo-4-trifluoromethyl-1,2-dihydroquinoline-6-sulfonicacid (3-acetylphenyl)amide] |
| 8.61 | CC(C)c1ccc(NS(=O)(=O)c2ccc3c(c2)c(C(F)(F)F)cc(=O)n3C)cc1 [Example 25, 1-Methyl-2-oxo-4-trifluoromethyl-1,2-dihydroquinoline-6-sulfonicacid (4-isopropylphenyl)amide] |
| 4.04 | Cn1c(=O)cc(C(F)(F)F)c2cc(S(=O)(=O)Nc3ccc4c(c3)OCO4)ccc21 [Example 26, 1-Methyl-2-oxo-4-trifluoromethyl-1,2-dihydroquinoline-6-sulfonicacid benzo[1,3]dioxol-5-ylamide] |
| 0.84 | Cc1ccc(-c2ccccc2)cc1NS(=O)(=O)c1ccc2c(c1)c(C(F)(F)F)cc(=O)n2C [Example 27, 1-Methyl-2-oxo-4-trifluoromethyl-1,2-dihydroquinoline-6-sulfonicacid (4-methylbipheny-3-yl)amide] |
| > 10 | CC(O)c1cccc(NS(=O)(=O)c2ccc3c(c2)c(C(F)(F)F)cc(=O)n3C)c1 (stereo not shown) [Example 28, 1-Methyl-2-oxo-4-trifluoromethyl-1,2-dihydro-quinoline-6-sulfonic acid [3-(1-hydroxyethyl)phenyl]-amide] |
| 3.72 | CSc1cccc(NS(=O)(=O)c2ccc3c(c2)c(C(F)(F)F)cc(=O)n3C)c1 [Example 29, 1-Methyl-2-oxo-4-trifluoromethyl-1,2-dihydroquinoline-6-sulfonicacid (3-methylsulfanylphenyl)amide] |
| > 10 | Cc1ccc(F)cc1NS(=O)(=O)c1ccc2c(c1)c(C(F)(F)F)cc(=O)n2C [Example 30, 1-Methyl-2-oxo-4-trifluoromethyl-1,2-dihydroquinoline-6-sulfonicacid (5-fluoro-2-methylphenyl)amide] |
| 1.32 | Cn1c(=O)cc(C(F)(F)F)c2cc(S(=O)(=O)Nc3ccc(Cl)cc3)ccc21 [Example 31, 1-Methyl-2-oxo-4-trifluoromethyl-1,2-dihydroquinoline-6-sulfonicacid (4-chlorophenyl)amide] |
| > 10 | Cn1c(=O)cc(C(F)(F)F)c2cc(S(=O)(=O)Nc3cc4ccccc4cn3)ccc21 [Example 32, 1-Methyl-2-oxo-4-trifluoromethyl-1,2-dihydroquinoline-6-sulfonicacid isoquinolin-3-ylamide] |
